Data published in patent US7271168B2, “Piperazine derivatives having SST1 antagonistic activity” (Novartis AG, priority 2001, dated 2007).
Where two headings read alike, the source gives them in different places.

Legend:
mice = experiment: social recognition test; type: in vivo; settings: social recognition test in mice
Experimental: Moreover when given at doses of about 0.03 to 3 mg/kg p.o. to rodents, the agents of the invention counteract electroshock-induced amnesia, increase retention performance in a passive avoidance paradigm (Mondadori et. al., Pharmacology Communications 1992, 2: 93-97) and improve social recognition (Mondadori et al., Behavioural Brain Research 1996, 77: 227-229). The compounds are therefore indicated for the treatment of cognitive disturbances and learning/memory disorders.

intruder rat = experiment: intruder test (intruder rat towards resident rat); type: in vivo
[1] = molecular target: somatostatin receptors (sst1) (Rattus norvegicus, UniProt P28646); experiment: somatostatin receptor affinity (pKd), rat; type: binding
Sequence of somatostatin receptors (sst1) (Rattus norvegicus, UniProt P28646) (P28646 whole entry): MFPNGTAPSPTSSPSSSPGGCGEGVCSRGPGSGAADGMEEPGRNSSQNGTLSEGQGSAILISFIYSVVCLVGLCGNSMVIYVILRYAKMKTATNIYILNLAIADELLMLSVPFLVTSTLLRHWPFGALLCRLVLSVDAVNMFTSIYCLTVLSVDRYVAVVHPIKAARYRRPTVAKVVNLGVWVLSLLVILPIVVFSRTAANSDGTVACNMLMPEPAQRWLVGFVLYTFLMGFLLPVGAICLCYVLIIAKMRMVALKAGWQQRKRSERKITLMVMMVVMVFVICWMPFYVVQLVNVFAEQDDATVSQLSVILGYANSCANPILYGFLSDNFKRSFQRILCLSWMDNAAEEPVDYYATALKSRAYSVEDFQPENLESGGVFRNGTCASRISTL
Text: (§1) The following pKd values have been found:

[2] = molecular target: T1, Somatostatin sst1 receptors (Homo sapiens, UniProt P30872); experiment: somatostatin receptor affinity (pKd), human; type: binding
T1 sequence (P30872 whole entry): as the sequence (P28646 whole entry) above, with P8S, T11S, S16P, G20S, V25G, C26G, S32A, S45A, A385T, S389T counted along it
Text: as §1

[3] = molecular target: somatostatin receptors (sst1) (Mus musculus, UniProt P30873); experiment: somatostatin receptor affinity (pKd), mouse; type: binding
Sequence of somatostatin receptors (sst1) (Mus musculus, UniProt P30873) (P30873 whole entry): as the sequence (P28646 whole entry) above, with P8S, T11S, S16P, G20S, V25A, S45A counted along it
Text: as §1

[4] = molecular target: T1, Somatostatin sst1 receptors

In the case of `CN(CCC(=O)N1CCN(c2ccc(F)c(F)c2)CC1)CCC1c2ccccc2-c2ccccc21` [Compound B, 1-[4-(3,4-difluoro-phenyl)-piperazin-1-yl]-3-{[2-(9H-fluoren-9-yl)-ethyl]-methyl-amino}-propan-1-one], the learning/memory performance (mice) is reported as “specific enhancing effect”, the “duration of social contacts of the intruder rat towards the resident rat” value (intruder rat) is reported as “significantly increase” and the Kd ([1]; rat, read-out: pKd (converted)) is reported as 0.501 nM. The Kd [2] was 2.51 to 6.31 nM, the Kd [3] was 2.51 to 5.01 nM and the “selectivity among somatostatin receptors” value [4] was “sst1 selective”.
`CN(CCC(=O)N1CCN(c2ccc(F)c(F)c2)CC1)CCC1c2ccccc2Oc2ccccc21` [Compound A, 1-[4-(3,4-difluoro-phenyl)-piperazin-1-yl]-3-{methyl-[2-(9H-xanthen-9-yl)-ethyl]-amino}-propan-1-one] was tested, and the learning/memory performance (mice) was “specific enhancing effect”, the “duration of social contacts of the intruder rat towards the resident rat” value (intruder rat) was “significantly increase” and the Kd [1] was 0.794 nM. It also gave a Kd [2] of 1.58 to 5.01 nM and a Kd [3] of 3.98 to 10 nM.
